A short description of data set [1]: Clottability of precipitated fibrinogen with bovine thrombin (ELISA of clot supernatant, by difference). Particulars: blood collected into heparin 2 U/mL. Format: biochemical, human. The procedure: The clottability of the recovered fibrinogen is evaluated as follows. A fibrinogen solution as prepared in Example 3 is prepared and used. To 1 mL of the fibrinogen solution 100 μL of bovine thrombin (Vital Products, Inc, Boynton Beach, Fla., 500 Units/mL) is added and the clot is allowed to stand for 30 minutes at 22° C. The clot is then centrifuged for 2 min at 3500 g and the supernatant removed. The amounts of fibrinogen present in the concentrated composition and in the clot supernatant are determined by ELISA, and the fibrinogen present in the clot is determined by difference. […] The amounts of fibrinogen and Factor XIII in the clot supernatant and in the concentrate can be measured with ELISA, and the amounts of fibrinogen and Factor XIII remaining in the clot can be determined by difference.
(In an ELISA, binding on a coated surface is turned into a signal by an enzyme label.)

Another data set addresses T1, fibrinogen (Homo sapiens, UniProt P02671+P02675+P02679).
T1 construct: Fibrinogen is precipitated from pooled human plasma by addition of protamine sulfate; from tissue; host or cells: human blood plasma (pooled human plasma / platelet-poor plasma of healthy adult donors)
T1 sequence (P02671 20-629 limits assumed): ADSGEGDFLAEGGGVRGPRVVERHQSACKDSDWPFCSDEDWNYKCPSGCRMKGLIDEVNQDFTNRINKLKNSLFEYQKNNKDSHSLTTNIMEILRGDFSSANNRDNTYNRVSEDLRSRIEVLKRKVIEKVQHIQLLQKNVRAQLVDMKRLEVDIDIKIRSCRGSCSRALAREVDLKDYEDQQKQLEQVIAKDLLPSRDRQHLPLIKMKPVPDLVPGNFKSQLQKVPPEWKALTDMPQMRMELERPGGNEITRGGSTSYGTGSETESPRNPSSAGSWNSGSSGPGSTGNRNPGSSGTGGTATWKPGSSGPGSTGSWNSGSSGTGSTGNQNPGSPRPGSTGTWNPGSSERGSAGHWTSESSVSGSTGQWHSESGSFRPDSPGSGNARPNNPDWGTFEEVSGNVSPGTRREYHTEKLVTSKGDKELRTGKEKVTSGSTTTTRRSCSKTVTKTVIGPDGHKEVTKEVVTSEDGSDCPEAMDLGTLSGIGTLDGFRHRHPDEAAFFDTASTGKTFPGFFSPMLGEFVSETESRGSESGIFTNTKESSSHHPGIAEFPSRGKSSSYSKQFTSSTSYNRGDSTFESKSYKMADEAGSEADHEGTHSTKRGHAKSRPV
T1 sequence (P02675 31-491): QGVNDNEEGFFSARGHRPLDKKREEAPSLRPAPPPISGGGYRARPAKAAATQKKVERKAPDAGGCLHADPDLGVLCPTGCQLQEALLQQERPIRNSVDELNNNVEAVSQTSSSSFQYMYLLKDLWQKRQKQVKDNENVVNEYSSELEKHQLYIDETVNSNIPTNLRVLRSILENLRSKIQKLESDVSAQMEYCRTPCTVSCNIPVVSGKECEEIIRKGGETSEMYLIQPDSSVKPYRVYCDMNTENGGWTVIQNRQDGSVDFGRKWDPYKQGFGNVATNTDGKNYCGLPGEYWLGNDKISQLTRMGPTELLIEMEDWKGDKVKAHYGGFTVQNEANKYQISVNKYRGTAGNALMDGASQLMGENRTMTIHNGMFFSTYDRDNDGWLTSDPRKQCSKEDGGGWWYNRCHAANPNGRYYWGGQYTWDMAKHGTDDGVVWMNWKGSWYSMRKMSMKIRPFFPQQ
T1 sequence (P02679 27-453): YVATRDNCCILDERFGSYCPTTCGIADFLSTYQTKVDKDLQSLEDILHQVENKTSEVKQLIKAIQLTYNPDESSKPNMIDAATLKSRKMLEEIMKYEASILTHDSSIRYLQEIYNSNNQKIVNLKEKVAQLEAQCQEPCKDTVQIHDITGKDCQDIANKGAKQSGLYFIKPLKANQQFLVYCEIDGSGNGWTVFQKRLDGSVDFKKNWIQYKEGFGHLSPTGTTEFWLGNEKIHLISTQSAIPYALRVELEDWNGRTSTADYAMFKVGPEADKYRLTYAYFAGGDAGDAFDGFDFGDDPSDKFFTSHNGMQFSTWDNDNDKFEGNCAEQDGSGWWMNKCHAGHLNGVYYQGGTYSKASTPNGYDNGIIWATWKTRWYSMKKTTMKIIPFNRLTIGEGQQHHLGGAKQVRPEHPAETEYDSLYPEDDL
Kind of data set: Fibrinogen precipitation from plasma by protamine (recovery in the concentrate, ELISA / Clauss method). Particulars: n=4. The procedure: Fibrinogen is precipitated from pooled human plasma by addition of protamine sulfate (Sigma Chemical Co.). The protamine sulfate is used to prepare a stock solution of 40 mg/mL. The protamine is then added to the plasma (final concentration=10 mg/mL), mixed, and then centrifuged at 1000 g for 5 min to sediment the precipitate. The plasma is then decanted, and the remaining precipitate is dissolved in 0.2 M sodium citrate (37° C., pH 7.4).
A concentrated fibrinogen solution is prepared as in Example 3. The fibrinogen and Factor XIII concentrations are evaluated with an enzyme-linked immunosorbent assay (ELISA; AssayPro LLC, Brooklyn, N.Y.). The color intensity of the developed ELISA plates is measured with a Dynex MRX microplate reader (Dynex Technologies, Chantilly, Va.) and compared to a standard curve.
The fibrinogen concentration in the plasma is measured with the Clauss method, where plasma samples are clotted in the presence of excess thrombin in a CoaData 2000 Fibrintimer (Labor GmbH, Hamburg, Germany). The clotting times are recorded, and the fibrinogen concentration is calculated from a standard curve. […]
Heparin is used clinically in most procedures requiring anticoagulation. Heparin is evaluated for its effect on fibrinogen and Factor XIII harvesting and subsequent clotting of harvested fibrinogen. […]

A short description of data set [2]: Tensile strength of fibrin clots (dog-bone mold, Instron). Particulars: 15 mg/mL fibrinogen concentrate, calcium chloride 1.8 to 100 mM tested.
Procedure: The tensile strength of fibrin clots is tested. […] The narrow neck provided the weakest point where the clot would break; the force at which the clot breaks serves as an indication of its tensile strength.
Test samples are prepared by simultaneously emptying syringes of fibrinogen and thrombin into a common duct where the mixture entered the mold through the sponge on one end and exited through the sponge on the other end. […] After the sample is given time to “cure,” (30 minutes unless various cure times were being tested), the plexiglass mold is dissembled, and the clot is transferred to an Instron Model 1120 Universal Testing Instrument (Instron Corp., Norwood, Mass., max load 500 g) where it is held on the ends via the sponge “grips”. A stress-strain curve is recorded while the sample is strained at 100 mm/min until it ruptured. The tensile strength is recorded as the maximum stress sustained.
Samples are prepared from a 15 mg/mL pure fibrinogen concentrate (as prepared in Example 4) as follows:
The effect of cure time on tensile strength and adhesion strength is evaluated by allowing the molded clots and the glued aortic strips (described in Example 9) to cure for 1, 5, 10, 15, 30, and 60 minutes at 22° C.
Controls of pooled human plasma (fibrinogen concentration ˜3 mg/mL), pure fibrinogen (15 mg/mL), and Tisseel (average fibrinogen concentration ˜95 mg/mL) are used. […]
Data set [3] is described as follows: Adhesion strength of fibrin clots between strips of aortic tissue (Instron). Particulars: 15 mg/mL fibrinogen concentrate, calcium chloride 1.8 to 100 mM tested.
Procedure: The adhesive strength of fibrin clots is tested. The adhesion strength of the fibrin glue is assessed by sandwiching the fibrin glue between two strips of aortic tissue and then pulling them apart, simulating the performance of the sealant bonding to tissue. Bovine aorta is prepared by slitting the aorta lengthwise and laying it flat. The aorta is then cut into smaller strips, each approximately 3 cm long and 1 cm wide. […] Sealant is applied (0.1 mL), covering an area of approximately 1 cm^2, to the exposed media as shown. An overlapping joint is formed (approximately one-third the length of each strip) and allowed to “cure” while held in place with a 100 g weight for 30 minutes at 22° C. The non-overlapping ends of the cured samples are clamped in an Instron Model 1120 Universal Testing Instrument (max load 500 g), and a stress-strain curve is recorded while the sample is strained at 100 mm/min until the overlapping (glued) joint failed. Adhesion strength is taken as the maximum stress sustained divided by the joint area (indicated by the glue still visible after the joint failed and measured with a digital caliper).
The effect of cure time on tensile strength and adhesion strength is evaluated by allowing the molded clots and the glued aortic strips (described in Example 9) to cure for 1, 5, 10, 15, 30, and 60 minutes at 22° C. […]

In the case of heparin, the “change in clottability of fibrinogen when heparin is present” value in data set [1] is “no observed changes”. As for protamine sulfate, on fibrinogen (blood collected into heparin 2 U/mL, protamine 11 mg/mL in plasma), the “fibrinogen in the plasma precipitated (maximum yield)” value is reported as 95±1%. Also, the “fibrinogen precipitated and recovered (percentage of fibrinogen in the original plasma)” value on fibrinogen (blood or plasma protamine concentration of 10 mg/mL) is 96±4%.

As for `[Ca+2].[Cl-].[Cl-]` [calcium chloride], the “calcium concentration giving maximum tensile strength” value in data set [2] is 8.9 to 50 mM. Moreover, the “calcium concentration giving maximum adhesion strength” value in data set [3] lay within 3.6 to 100 mM.

The values above are taken from patent US20100086529A1, “METHODS OF MAKING CONCENTRATED FIBRINOGEN- AND PLATELET-CONTAINING COMPOSITIONS” (priority 2008, published 2010).
